Assay in all cases: NCI tumour cell line growth inhibition, 48 h
Assay [1] has as its system SF-539 CNS.
Assay [2] relates to SNB-75 CNS.
In assay [3] the test system is HCC-2998 colon.
The test system of assay [4] is IGROV1 ovarian.
Assay [5] concerns M14 melanoma.
In assay [6] the test system is OVCAR-4 ovarian.
Assay [7] has as its system SK-MEL-5 melanoma.
The test system of assay [8] is HCT-15 colon.
Assay [9] concerns LOX IMVI melanoma.
In assay [10] the test system is SK-MEL-2 melanoma.

This note sets out measurements from PubChem BioAssay (NCI).

Values joined by “and” are separate entries in the source; they are usually repeats but may differ in a detail not shown here. Equal entries are not always repeated.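 48-hour exposure; five concentrations; linearly interpolated endpoints. At the GI50, growth is halved. The concentration for full growth arrest is given as TGI.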

On to `COc1cc2c(cc1OCCCCNC(=O)c1cc3ccccc3[nH]1)N=CC1CCCN1C2=O` (stereo not drawn), for which the GI50 in assay [1] is 8.57 µM; in assay [2] it was 33.9 µM; in [3] it was 16.6 µM; in assay [4], 18.1 µM; in assay [5] it was 28.2 µM; in assay [6], 28.2 µM. For the same compound, the GI50 in [7] was 5.65 µM; in assay [8], 16.4 µM; in assay [9], 8.96 µM. Moreover, the TGI is 41.7 µM in assay [1]; greater than 100 µM in assay [2]; 45.1 µM in assay [3]; greater than 100 µM in assay [4]; greater than 100 µM in assay [5]; 94.4 µM in [6]. For the same compound, the TGI in assay [7] came to 23.9 µM; in assay [8], 58.2 µM; in assay [9], 63.8 µM.
Take `N/C(=N\O)c1ncc(-c2ccc(C(F)(F)F)cc2)c(NC2CCCCCC2)n1`: the GI50 was 3.39 µM in [1]; 5.11 µM in [2]; 3.92 µM in assay [3]; 6.72 µM and 2.26 µM in [4]; 9.68 µM and 3.24 µM in assay [5]; 2.72 µM in [6]. For the same compound, the GI50 in assay [7] was 4.66 µM and 3.44 µM; in assay [8], 2.97 µM and 0.955 µM; in assay [9] it was 8.76 µM and 2.85 µM. The TGI in [1] was 12.3 µM; in [2], 20.6 µM; in [3] it was 14.3 µM; in assay [4], 10.7 µM; in assay [5], 13.9 µM; in assay [6] it was 15 µM. Besides, the values for the TGI in assay [7], in assay [8] and in assay [9] were 15.5 µM, 15.1 µM and 10.8 µM, respectively.
On to `O=C(Nc1cccc(Cl)c1)Nc1cccc(Cl)c1`, for which the GI50 in assay [1] was 49.1 µM; in assay [2] it was 2.49 µM; in assay [10] it was greater than 21.5 µM; in assay [4], 37.8 µM; in assay [5], greater than 100 µM; in assay [6], 1.99 µM. Moreover, the GI50 in assay [7] was greater than 100 µM; in [9], 32 µM. The TGI in assay [1] is greater than 100 µM; in [2], 44.3 µM; in assay [10] it was greater than 100 µM; in assay [4], greater than 100 µM; in assay [5], greater than 100 µM; in [6], greater than 100 µM. Besides, the TGI in assay [7] and in assay [9] was greater than 100 µM in each case.
As for `Cc1ccc2nc3c(Cl)cc(=O)cc-3sc2c1`, the TGI in assay [1] worked out at 11.5 µM; in assay [2], 57.7 µM; in assay [4], 38.1 µM; in assay [5], 60.5 µM; in assay [6] it was 30.7 µM; in assay [7], 30.8 µM. This compound also showed a TGI in assay [8] of 32 µM.
In the case of `N=C(N)n1ncc(Cl)c(Cl)c1=O`, the TGI in [1] is 5.42 µM; in [2], 9.24 µM; in [10] it was 6.93 µM; in [4], 28.7 µM; in assay [5] it was 4.03 µM; in assay [6], 3.41 µM. Further, the figures for the TGI in [7] and in assay [8] were 15.2 µM and 3.99 µM, respectively.
For the compound `Cc1ccc(-n2c3c(c4c(CN5CCCCC5)c(O)ccc42)CCc2ccccc2C3=O)cc1`, the GI50 in assay [1] was 50 µM; in assay [3], greater than 100 µM; in assay [10], greater than 100 µM; in assay [4] it was 39.9 µM; in [5] it was greater than 100 µM; in assay [7] it was greater than 100 µM. For the same compound, the GI50 in [8] and in assay [9] was greater than 100 µM each time. Besides, the TGI in assay [1], in [3], in assay [10], in [4], in assay [5] and in assay [7] was greater than 100 µM throughout. Also, the TGI in assay [8] and in assay [9] was greater than 100 µM throughout.
For `CC(=O)Nc1ccc2nncnc2c1`, the TGI in assay [1], in assay [2], in assay [10], in assay [4], in assay [5] and in [6] was greater than 100 µM in each case. The TGI in [7], in [8] and in assay [9] was greater than 100 µM throughout.
Turning to `CSC1=Nc2c(c(C)c(-c3ccccc3)n2COC(CO)CO)C2=NC(=O)C(C)N12` (stereo not drawn), the GI50 is greater than 100 µM in assay [1]; 48.5 µM in [2]; greater than 100 µM in assay [3]; greater than 100 µM in assay [10]; 26.5 µM in [4]; greater than 100 µM in [6]. For the same compound, the GI50 in assay [7], in assay [8] and in assay [9] was greater than 100 µM throughout. In addition, the TGI in assay [1], in [2], in assay [3], in [10], in assay [4] and in assay [6] was greater than 100 µM in each case. Moreover, the TGI in assay [7], in assay [8] and in assay [9] was greater than 100 µM in each case.
Consider `NC(=O)c1ccccc1NC(=O)C(=O)C(C(=O)c1ccc2ccccc2c1)C1OC(=O)c2ccccc21` (stereo not drawn), for which the TGI is 45.2 µM in assay [2]; 20.1 µM in assay [3]; 33.2 µM in [10]; 46.6 µM in assay [4]; 30 µM in assay [5]; 32.9 µM in assay [6]. Also, the TGI in [7] came out at 24.6 µM; in assay [8] it was 41.5 µM; in [9], 29.9 µM.
Consider `O=C(c1cc2ccccc2[nH]1)C(O)(c1cc2ccccc2[nH]1)c1cc2ccccc2[nH]1`, for which the TGI in [1], in [3], in assay [10], in assay [4], in assay [7] and in [8] was greater than 246 µM throughout. Besides, the TGI in [9] was greater than 246 µM.
Consider `Fc1ccc(-c2nc(-c3nc4ccc(Cl)cc4[nH]3)cc3c2[nH]c2ccccc23)cc1`, for which the GI50 is 3.55 µM in [1]; 5.56 µM in assay [3]; 2.76 µM in [10]; 2.89 µM in [4]; 3.05 µM in assay [5]; 4.81 µM in assay [6]. For the same compound, the GI50 is 3.52 µM in assay [7], 3.63 µM in assay [8] and 2.41 µM in [9]. Moreover, the TGI came out at 13.8 µM in assay [1]; 20.2 µM in [3]; 7.54 µM in assay [10]; 12.2 µM in assay [4]; 11.4 µM in assay [5]; 17.2 µM in assay [6]. Further, the TGI in assay [7] amounted to 15.4 µM; in [8], 15.9 µM; in assay [9], 6.63 µM.
On to `CC(C)c1cc(C(C)C)c(S(=O)(=O)NN)c(C(C)C)c1`, for which the TGI in assay [1], in assay [2], in [10], in [4], in assay [6] and in [7] was greater than 100 µM throughout. In addition, the TGI in assay [8] and in assay [9] was greater than 100 µM throughout.
Turning to `COc1ccc(Nc2c3ccccc3nc3c2c2ccccc2n3C)cc1`, the GI50 in assay [1] was 8.78 µM; in assay [2] it was greater than 100 µM; in assay [10], 57.6 µM; in assay [4], 15.3 µM; in assay [7], 14 µM; in [8], 11.1 µM. Further, the GI50 in assay [9] was 7.62 µM. Also, the TGI is 27.5 µM in assay [1]; greater than 100 µM in assay [2]; greater than 100 µM in assay [10]; greater than 100 µM in assay [4]; 37.4 µM in assay [7]; greater than 100 µM in [8]. Besides, the TGI in [9] was 47.2 µM.
Consider `C/C(=N\NC(=O)CC(=O)Nc1ccc(C)cc1)c1cc2ccccc2oc1=O`, for which the TGI in assay [1] is greater than 100 µM; in assay [2] it was 76.6 µM; in assay [10], greater than 100 µM; in [4] it was greater than 100 µM; in [5] it was greater than 100 µM; in assay [7], greater than 100 µM. The TGI in assay [8] and in [9] was greater than 100 µM in each case.
As to `COc1ccc(/C=C2\N=C(c3ccccc3)OC2=O)c(OCc2ccccc2)c1`, the TGI in assay [1] was 46.6 µM; in [3], greater than 100 µM; in assay [4], 64.4 µM; in assay [5] it was greater than 100 µM; in assay [6], 47.7 µM; in assay [7], 52.2 µM. In addition, in assay [9], the TGI is greater than 100 µM.
In the case of `COc1ccc(/C=C/C(=O)c2sc(N)nc2C)cc1`, the TGI in assay [1], in assay [2], in [3], in [10], in [4] and in assay [7] was greater than 100 µM each time. Also, the TGI in assay [8] and in assay [9] was greater than 100 µM in each case.
For `Cn1cc(-c2csc(-c3c[nH]c4ncccc34)n2)c2cc(Br)cnc21`, the GI50 in assay [1] is 27.7 µM; in assay [2], 2.18 µM; in assay [3], greater than 100 µM; in assay [10], 19.8 µM; in assay [4], 2.21 µM; in assay [5], 4.06 µM. The values for the GI50 in assay [8] and in assay [9] were 13.7 µM and 4.26 µM, respectively. The TGI in [1] was greater than 100 µM; in assay [2], 7.35 µM; in [3], greater than 100 µM; in assay [10] it was 66.7 µM; in [4], greater than 100 µM; in assay [5], greater than 100 µM. The TGI in [8] and in [9] was greater than 100 µM in each case.
In the case of `COc1cccc(Nc2nc(NNC(=O)Cc3ccccc3)nc(NNC(=O)c3ccncc3)n2)c1`, the GI50 in [1], in [4], in assay [6], in assay [7] and in assay [8] was greater than 100 µM throughout. Moreover, the TGI in assay [1], in assay [2], in assay [10], in assay [4], in [5] and in assay [6] was greater than 100 µM throughout. For the same compound, the TGI in assay [7], in assay [8] and in assay [9] was greater than 100 µM in each case.
As for `NC(=S)N/N=C(/CC(=O)c1ccc([N+](=O)[O-])cc1)C(=O)Nc1ncc([N+](=O)[O-])s1`, the TGI in assay [2], in [3], in assay [10], in assay [4], in assay [5] and in [6] was greater than 100 µM throughout. Besides, the TGI in [7] and in assay [9] was greater than 100 µM in each case.
For `CC(=O)CC(=O)CCCC(=O)Nc1ccc(Cl)cc1C`, the TGI in assay [1], in assay [3], in [10], in [4], in [5] and in assay [6] was greater than 100 µM in each case. In addition, the TGI in assay [7], in assay [8] and in assay [9] was greater than 100 µM each time.
Regarding `COc1cc(/C=C/C(=O)C(=Cc2ccc(F)c(F)c2)C(=O)/C=C/c2ccc(O)c(OC)c2)ccc1O`, the GI50 was 3.26 µM in assay [1]; 1.91 µM in assay [2]; 1.98 µM in assay [3]; 1.81 µM in [10]; 3.82 µM in [4]; 2.96 µM in assay [6]. In addition, the GI50 in assay [7] is 2.18 µM; in assay [8], 2.82 µM; in [9] it was 1.95 µM. Besides, the TGI in assay [1] was 13.6 µM; in [2], 5.97 µM; in assay [3], 3.79 µM; in assay [10], 3.58 µM; in assay [4] it was 67.9 µM; in assay [6], 10.7 µM. Further, the TGI amounted to 5.3 µM in [7], 10.1 µM in [8] and 4.48 µM in assay [9].
Take `CCc1cccc(C(C)CC)c1N=C(NC(=O)c1ccccc1C(=O)NC(=Nc1c(CC)cccc1C(C)CC)SC)SC` (stereo not drawn): the TGI in assay [1] was 68.8 µM; in assay [3], greater than 100 µM; in [10] it was greater than 100 µM; in [4], greater than 100 µM; in assay [5], 44.5 µM; in assay [6], greater than 100 µM. In addition, the TGI in [8] and in assay [9] was greater than 100 µM throughout.
For the compound `O=[N+]([O-])c1cccc(C2SCc3nc4ccccc4n32)c1` (stereo not drawn), the TGI is greater than 100 µM in [1]; greater than 100 µM in assay [10]; greater than 100 µM in assay [4]; greater than 100 µM in [6]; 52.8 µM in [7]; greater than 100 µM in assay [9].
